Tested on: murine MC38 colon cancer cell line
Assay: MC38 syngeneic tumor model
Excerpt: Tumor size (mm^3), P=0.01 (Student t-test) (A) and percent body weight change (B) are shown.
When the mean tumor volume reached 73 mm^3 in size, mice were randomized into 2 groups of 6. […] Tumor measurements (caliper) were taken on the indicated days. […] Student t-test was used to evaluate the statistical significance of the difference between these groups, P=0.01.

C[C@H](N)C(=O)O[C@@H](C)C(=O)N1CCC(CCn2c(Sc3cc4c(cc3Br)OCO4)nc3c(N)ncnc32)CC1 [MPC-0767]
effect on body weight (oral 150 mg/kg QD×17): without significant effects on body weight | tumor growth inhibition (oral 150 mg/kg QD×17, P=0.01): 69.5%
